Data: patent publication US20100029710A1, “COMPOUNDS HAVING BOTH ANGIOTENSIN II RECEPTOR ANTAGONISM AND PPARy ACTIVATING ACTIVITIES” (Pfizer Products Inc., priority 2006, published 2010)

Assays:
[1] = target: T1, Human recombinant AT1 receptor (Homo sapiens, UniProt P30556); test: AT1 receptor radioligand binding (flashplate); conditions: 125I Sar1,Ile8-Angiotensin II radioligand
T1 construct: purchased
T1 sequence (P30556 1-359): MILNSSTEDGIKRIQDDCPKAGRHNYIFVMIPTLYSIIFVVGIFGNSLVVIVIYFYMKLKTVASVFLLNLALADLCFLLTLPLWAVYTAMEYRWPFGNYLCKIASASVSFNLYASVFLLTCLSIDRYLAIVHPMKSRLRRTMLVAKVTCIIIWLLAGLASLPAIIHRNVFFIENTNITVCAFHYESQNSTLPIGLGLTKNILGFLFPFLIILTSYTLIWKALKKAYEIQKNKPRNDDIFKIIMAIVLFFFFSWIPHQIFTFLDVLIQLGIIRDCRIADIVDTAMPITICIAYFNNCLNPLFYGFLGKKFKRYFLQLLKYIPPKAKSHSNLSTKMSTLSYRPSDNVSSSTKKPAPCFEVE
Experimental: Angiotensin II receptor antagonist activity may be determined using commercially available flashplates coated with the AT1 or AT2 receptor which provide a rapid and high throughput means to evaluate compounds compared to traditional filtration based assays (Regina M. Van Der Hee et al., Journal of Biomolecular Screening 10(2); 2005; 118-126).
AT1 receptor affinity was determined in a radioligand binding format using commercially available flashplate technology. Human recombinant AT1 receptor were coated on the wells of a 96 well flashplate and test compounds were diluted and added to wells at a final concentration range of 50 μM to 1 μM. Total binding was determined in the absence of compound and non-specific binding in the presence of 10 μM cold Angiotensin II. ^125I labeled Sar^1, Ile^8-Angiotensin II was added to all wells at Kd concentration and left for 2 hours at room temperature to equilibrate. Plates were read on a TopCount (Perkin Elmer) and concentration-response curves constructed using commercial curve fitting software. The Ki was determined via interpolation and the use of the Cheng-Prussof equation.

[2] = target: T2, human PPARγ LBD bound to Gal4 DBD (Homo sapiens, UniProt P37231); test: PPARγ transfection luciferase reporter assay in HepG2 cells; format: cell-based; conditions: for Emax: HepG2, 24 h, compared to full agonist response (standard TZD full agonist), read-out: PPARγ % activation; for EC50: HepG2, 24 hours exposure
T2 construct: expressed in transfected cells; host or cells: HepG2
T2 sequence (P37231 238-503 limits assumed): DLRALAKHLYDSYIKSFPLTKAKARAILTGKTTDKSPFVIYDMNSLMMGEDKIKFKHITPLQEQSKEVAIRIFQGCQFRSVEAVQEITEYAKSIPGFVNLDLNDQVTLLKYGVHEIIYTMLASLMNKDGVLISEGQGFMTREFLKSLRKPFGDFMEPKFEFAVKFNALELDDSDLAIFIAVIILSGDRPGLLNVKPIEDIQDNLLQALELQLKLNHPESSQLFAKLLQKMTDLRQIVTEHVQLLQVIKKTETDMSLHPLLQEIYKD
Experimental: PPARγ agonist activity may be determined by a cell line transiently transfected with PPARγ bound to a DNA binding domain that controls luciferase expression. The degree of receptor agonism is measured by the amount of luciferase activity after compound treatment. The ratio of treated cells over vehicle control cells provides a measure of fold activation and allows an EC50 (shown in tables I and II as […] EC50) and % activation to be calculated
A human hepatocellular carcinoma cell line (HepG2) was subcultured into dishes and transiently transfected with DNA to allow expression of human PPARγ LBD bound to Gal4 DBD. Luciferase reporter gene and β-galactosidase control genes were co-transfected to enable activity to be measured. After 24 hours, cells were exposed to compounds in the concentration range of 0.1 nM-100 μM and left for a further 24 hours. Luciferase activity is determined by luminometry and PPARγ activation is expressed as a ratio of luciferase activity to β-galactosidase activity to account for transfection efficiency. Potency is described by an EC50 defined as the concentration of compound producing receptor activation equivalent to 50% of the maximum for that compound (shown in Table I as transfection EC50). The maximum fold activation is a measure of efficacy and is expressed as a percentage of a reference full agonist run in the same assay. Efficacy is described by % activation of receptor relative to a standard thiazolidinedione (TZD) full agonist.

Row | Structure (SMILES) | IC50 [1] [µM] | Emax [2] [%] | EC50 [2] [µM]
1 | CCc1nc2c(C)cc(CCC(O)c3cccnc3)nc2n1[C@H]1CCc2cc(-c3ccccc3-c3nnn[nH]3)ccc21 (stereo partly drawn) [Example 34, 3-(3-((1S)-5-(2-(1H-tetrazol-5-yl)phenyl)-2,3-dihydro-1H-inden-1-yl)-2-ethyl-7-methyl-3H-imidazo[4,5-b]pyridin-5-yl)-1-(pyridin-3-yl)propan-1-ol] | 0.0021 | 12 | 0.595
2 | CCc1nnc(Cc2cc(C)c3nc(CC)n([C@H]4CCc5cc(-c6ccccc6-c6nnn[nH]6)ccc54)c3n2)o1 [Example 62, 3-((1S)-5-(2-(1H-tetrazol-5-yl)phenyl)-2,3-dihydro-1H-inden-1-yl)-2-ethyl-5-((5-ethyl-1,3,4-oxadiazol-2-yl)methyl)-7-methyl-3H-imidazo[4,5-b]pyridine] | 0.0014 | 50 | 0.07
3 | CCc1nc2c(C)cc(CC(C)O)nc2n1[C@H]1CCc2cc(-c3ccccc3-c3nnn[nH]3)ccc21 (mixture of isomers) [Example 15, 1-(3-((1S)-5-(2-(1H-tetrazol-5-yl)phenyl)-2,3-dihydro-1H-inden-1-yl)-2-ethyl-7-methyl-3H-imidazo[4,5-b]pyridin-5-yl)propan-2-ol] | 0.0017 | 19 | 0.085
4 | C=CCc1cc(C)c2nc(CC)n([C@H]3CCc4cc(-c5ccccc5-c5nnn[nH]5)ccc43)c2n1 [Example 9, 3-((1S)-5-(2-(1H-tetrazol-5-yl)phenyl)-2,3-dihydro-1H-inden-1-yl)-5-allyl-2-ethyl-7-methyl-3H-imidazo[4,5-b]pyridine] | 0.0027 | 27 | 0.06
5 | CCc1nc2c(C)cc(CC(O)C(C)C)nc2n1[C@H]1CCc2cc(-c3ccccc3-c3nnn[nH]3)ccc21 (stereo partly drawn) [Example 21, 1-(3-((1S)-5-(2-(1H-tetrazol-5-yl)phenyl)-2,3-dihydro-1H-inden-1-yl)-2-ethyl-7-methyl-3H-imidazo[4,5-b]pyridin-5-yl)-3-methylbutane-2-ol] | 0.0031 | 23 | 0.1
6 | CCc1nc2c(C)cc(CCC3CC3)nc2n1[C@H]1CCc2cc(-c3ccccc3-c3nnn[nH]3)ccc21 [Example 59, 3-((1S)-5-(2-(1H-tetrazol-5-yl)phenyl)-2,3-dihydro-1H-inden-1-yl)-5-(2-cyclopropylethyl)-2-ethyl-7-methyl-3H-imidazo[4,5-b]pyridine] | 0.0029 | 30 | 0.215
7 | CCc1nc2c(C)cc(C(C)(C)OC)nc2n1[C@H]1CCc2cc(-c3ccccc3-c3nnn[nH]3)ccc21 [Example 17, 3-((1S)-5-(2-(1H-tetrazol-5-yl)phenyl)-2,3-dihydro-1H-inden-1-yl)-2-ethyl-5-(2-methoxypropan-2-yl)-7-methyl-3H-imidazo[4,5-b]pyridine] | 0.0088 | 24 | 0.065
8 | CCc1nc2c(C)cc(CCC(O)(CC)CC)nc2n1[C@H]1CCc2cc(-c3ccccc3-c3nnn[nH]3)ccc21 [Example 56, 1-(3-((1S)-5-(2-(1H-tetrazol-5-yl)phenyl)-2,3-dihydro-1H-inden-1-yl)-2-ethyl-7-methyl-3H-imidazo[4,5-b]pyridin-5-yl)-3-ethylpentane-3-ol] | 0.0025 | 31 | 0.11
9 | CCc1nc2c(C)cc(CCc3ccccc3F)nc2n1[C@H]1CCc2cc(-c3ccccc3-c3nnn[nH]3)ccc21 [Example 26, 3-((1S)-5-(2-(1H-tetrazol-5-yl)phenyl)-2,3-dihydro-1H-inden-1-yl)-5-(2-fluorophenethyl)-2-ethyl-7-methyl-3H-imidazo[4,5-b]pyridine] | 0.01 | 26 | 0.38
10 | CCc1nc2c(C)cc(CC[C@@H](C)OC)nc2n1[C@H]1CCc2cc(-c3ccccc3-c3nnn[nH]3)ccc21 [Example 39, 3-((1S)-5-(2-(1H-tetrazol-5-yl)phenyl)-2,3-dihydro-1H-inden-1-yl)-2-ethyl-5-((R)-3-methoxybutyl)-7-methyl-3H-imidazo[4,5-b]pyridine] | 0.0011 | 24 | 0.135
11 | CCCc1nc2c(C)cc(CCC3(O)CCCC3)nc2n1[C@H]1CCc2cc(-c3ccccc3-c3nnn[nH]3)ccc21 [Example 43, 1-(2-(3-((1S)-5-(2-(1H-tetrazol-5-yl)phenyl)-2,3-dihydro-1H-inden-1-yl)-7-methyl-2-propyl-3H-imidazo[4,5-b]pyridin-5-yl)ethyl)cyclopentanol] | 0.001 | 20 | 0.84
12 | CCc1nc2c(C)cc(CCc3ccccn3)nc2n1[C@H]1CCc2cc(-c3ccccc3-c3nnn[nH]3)ccc21 [Example 25, 3-((1S)-5-(2-(1H-tetrazol-5-yl)phenyl)-2,3-dihydro-1H-inden-1-yl)-2-ethyl-7-methyl-5-(2-(pyridin-2-yl)ethyl)-3H-imidazo[4,5-b]pyridine] | 0.0024 | 26 | 0.18
13 | CCc1nc2c(C)cc([C@H](O)C(C)C)nc2n1[C@H]1CCc2cc(-c3ccccc3-c3nnn[nH]3)ccc21 [Example 11, (R)-1-(3-((1S)-5-(2-(1H-tetrazol-5-yl)phenyl)-2,3-dihydro-1H-inden-1-yl)-2-ethyl-7-methyl-3H-imidazo[4,5-b]pyridin-5-yl)-2-methylpropan-1-ol] | 0.016 | 39 | 0.44
14 | CCCc1nc2c(C)cc(CCC(C)(C)O)nc2n1[C@H]1CCc2cc(-c3ccccc3-c3nnn[nH]3)ccc21 [Example 35, 4-(3-((1S)-5-(2-(1H-tetrazol-5-yl)phenyl)-2,3-dihydro-1H-inden-1-yl)-7-methyl-2-propyl-3H-imidazo[4,5-b]pyridin-5-yl)-2-methylbutan-2-ol] | 0.0005 | 23 | 0.39
15 | CCc1nc2c(C)cc(C3OC3(C)C)nc2n1[C@H]1CCc2cc(-c3ccccc3-c3nnn[nH]3)ccc21 (stereo partly drawn) [Example 22, 3-((1S)-5-(2-(1H-tetrazol-5-yl)phenyl)-2,3-dihydro-1H-inden-1-yl)-5-(3,3-dimethyloxiran-2-yl)-2-ethyl-7-methyl-3H-imidazo[4,5-b]pyridine] | 0.0022 | 28 | 0.46
16 | CCc1nc2c(C)cc(CC[C@@H](C)O)nc2n1[C@H]1CCc2cc(-c3ccccc3-c3nnn[nH]3)ccc21 (single isomer, unassigned) [Example 37] | 0.0005 | 24 | 0.27
17 | CCc1nc2c(C)cc(C(=O)CC(C)C)nc2n1[C@H]1CCc2cc(-c3ccccc3-c3nnn[nH]3)ccc21 [Example 60, 1-(3-((1S)-5-(2-(1H-tetrazol-5-yl)phenyl)-2,3-dihydro-1H-inden-1-yl)-2-ethyl-7-methyl-3H-imidazo[4,5-b]pyridin-5-yl)-3-methylbutan-1-one] | 0.022 | 21 | 0.525
18 | CCc1nc2c(C)cc(CCCc3cccnc3)nc2n1[C@H]1CCc2cc(-c3ccccc3-c3nnn[nH]3)ccc21 [Example 32, 3-((1S)-5-(2-(1H-tetrazol-5-yl)phenyl)-2,3-dihydro-1H-inden-1-yl)-2-ethyl-7-methyl-5-(3-(pyridin-3-yl)propyl)-3H-imidazo[4,5-b]pyridine] | 0.0021 | 20 | 0.51
